# Patent US20220041681A1 (MEDIMMUNE LIMITED, priority 2016, published 2022)
# System: overweight or obese subjects with type 2 diabetes mellitus (T2DM)
# Experiment: Multiple-ascending dose study Part II (Cohorts 5 and 6)
# Assay type: in vivo, human
# Settings: for Fasting Glucose (change) / Glucose AUG (change) / Weight (change): n = 12 active
# Procedure: A randomized, double-blind, multiple-ascending dose study is performed. This study consists of 2 cohorts: cohort 5 and cohort 6.
# The study consists of an inpatient up-titration evaluation period beginning on Day 3 for both Cohorts 5 and 6 and an outpatient follow-up period. The first 4 days and the final day of dosing at 300 μg are inpatient.
# Subjects have a second inpatient period for the initiation of the 300 μg dose ending on the fourth day at that dose followed by at-home self administration.
# Additional time points include before commencing the 300 μg dose (Day 16 for Cohort 5 and Day 11 for Cohort 6), and at the end of dosing (Day 22 for Cohort 5 and Day 17 for Cohort 6).
smiles,measurement,setting,value
CCCCCCCCCCCCCCCC(=O)N[C@@H](CCC(=O)NCCCC[C@H](NC(=O)[C@H](CC(=O)O)NC(=O)[C@H](CO)NC(=O)C(NC(=O)[C@H](Cc1ccccc1)NC(=O)C(NC(=O)CNC(=O)[C@H](CCC(N)=O)NC(=O)[C@H](CO)NC(=O)[C@@H](N)Cc1cnc[nH]1)[C@@H](C)O)[C@@H](C)O)C(=O)N[C@@H](CO)C(=O)N[C@@H](CCC(=O)O)C(=O)N[C@@H](Cc1ccc(O)cc1)C(=O)N[C@@H](CC(C)C)C(=O)N[C@@H](CC(=O)O)C(=O)N[C@@H](CO)C(=O)N[C@@H](CCC(=O)O)C(=O)N[C@@H](CCCNC(=N)N)C(=O)N[C@@H](C)C(=O)N[C@@H](CCCNC(=N)N)C(=O)N[C@@H](CC(=O)O)C(=O)N[C@@H](Cc1ccccc1)C(=O)N[C@H](C(=O)N[C@@H](C)C(=O)N[C@@H](Cc1c[nH]c2ccccc12)C(=O)N[C@@H](CC(C)C)C(=O)N[C@@H](CCC(=O)O)C(=O)N[C@@H](C)C(=O)NCC(=O)NCC(=O)O)C(C)C)C(=O)O (stereo partly drawn) [Peptide G933],glucose AUC reduction,"Cohort 5 (100/150/200/300 μg, 22 days)",41.7%
same,Fasting Glucose (change),"Cohort 5, 300 ug",-24.40 mg/dL
same,Glucose AUG (change),"Cohort 5, 300 ug",−33.7
same,Weight (change),"Cohort 5, 300 ug, difference to placebo after 22 days",-2.11 kg
same,weight loss difference vs placebo,"Cohort 5, 22 days",2.11 kg
same,heart rate increase from baseline,"Cohort 5, 22 days administration",approximately 7.6 BPM
same,weight lost,"Cohort 5, after 22 days",about 3.09 kg
same,glucose AUC reduction,"Cohort 6 (100/200/300 μg, 17 days)",35.8%
same,Fasting Glucose (change),"Cohort 6, 300 ug",-36.94 mg/dL
same,Glucose AUG (change),"Cohort 6, 300 ug",−28.9
same,Weight (change),"Cohort 6, 300 ug, difference to placebo after 17 days",-1.88 kg
same,patients who vomited,"Cohort 6, 1 patient",8.3%
same,weight loss difference vs placebo,"Cohort 6, 17 days",1.88 kg
same,heart rate increase from baseline,"Cohort 6, 17 days administration",approximately 5.9 BPM
same,weight lost,"Cohort 6, after 17 days",about 2.23 kg
same,deaths or serious adverse events,Cohorts 5 and 6,No deaths or serious adverse events were observed
same,rate of vomiting,"Cohorts 5 and 6 together, 4/24",16%
same,rate of nausea,"Cohorts 5 and 6 together, 8/24",33%
